Measurements from the supplement of paper PMC4862054.

How the values were obtained:
Details in all cases: incubation time: 72 h
MFM-223 [1] = assay: drug sensitivity score (DSS), CellTiter-Blue viability (DSS (AUC-based score)); higher = stronger viability inhibition; extreme values may be limits of the assay
Procedure: (§1)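 DSRT with the CellTiter-Blue (resazurin reduction) viability readout, fluorescence 560/590 nm, 72 h incubation. Plates were normalised to DMSO and benzethonium chloride controls. DSS is computed from the area under the fitted dose-response curve (5 or 9 concentrations).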

BT-549 [2] = assay: as above
Procedure: as §1

CAL-51 [3] = assay: normalised viability (% of control), CellTiter-Blue; higher = more viable cells (about 100 = DMSO control)
How it was run: (§2)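 Breast cancer cell lines were treated for 72 h in 384-well format and measured by CellTiter-Blue fluorescence at 560/590 nm. Results were normalised per plate to vehicle (100) and a positive kill control (0). The entry is normalised viability at a single listed concentration of the series.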

Hs578T [4] = assay: as above
How it was run: as §2

SK-BR-3 [5] = assay: as above
How it was run: as §2

MDA-MB-231 [6] = assay: as above
How it was run: as §2

MFM-223 [7] = assay: as above
How it was run: as §2

HCC1599 [8] = assay: as above
How it was run: as §2

DU-4475 [9] = assay: as above
How it was run: as §2

CAL-51 [10] = assay: normalised viability (% of control), CellTiter-Blue; higher = more viable cells (about 100 = DMSO control); remark: listed apart in the source
Procedure: (§3)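 DSRT, CellTiter-Blue viability, 72 h incubation. Signal is normalised to DMSO and benzethonium chloride controls. Value is the normalised response at dose 3.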

HCC1937 = assay: as above
Procedure: as §3

Hs578T [11] = assay: as above; remark: listed apart in the source
Procedure: as §3

HDQ-P1 = assay: as above
Procedure: as §3

SK-BR-3 [12] = assay: as above; remark: listed apart in the source
Procedure: as §3

MDA-MB-231 [13] = assay: as above; remark: listed apart in the source
Procedure: as §3

CAL-148 = assay: as above
Procedure: as §3

CAL-85-1 = assay: as above
Procedure: as §3

BT-474 = assay: as above
Procedure: as §3

MFM-223 [14] = assay: as above; remark: listed apart in the source
Procedure: as §3

HCC1599 [15] = assay: as above; remark: listed apart in the source
Procedure: as §3

MDA-MB-468 = assay: as above
Procedure: as §3

HCC1143 = assay: as above
Procedure: as §3

CAL-120 = assay: as above
Procedure: as §3

BT-549 [16] = assay: as above
Procedure: as §3

DU-4475 [17] = assay: as above; remark: listed apart in the source
Procedure: as §3

MDA-MB-453 = assay: as above
Procedure: as §3

MDA-MB-436 = assay: as above
Procedure: as §3

NC(=O)NO [Hydroxyurea]
Details	drug sensitivity score
BT-549 [2]	0
MFM-223 [1]	0

Details	normalised viability [%]
BT-474, 1000 nM	115
BT-549 [16], 1000 nM	103
CAL-51 [3], 30 nM	103
CAL-51 [3], 300 nM	107
CAL-51 [3], 1000 nM	104
CAL-51 [10], 100 nM	111
CAL-85-1, 100 nM	100
CAL-120, 1000 nM	103
CAL-148, 100 nM	96.8
DU-4475 [9], 30 nM	122
DU-4475 [9], 300 nM	115
DU-4475 [9], 1000 nM	98.3
DU-4475 [17], 100 nM	119
HCC1143, 1000 nM	106
HCC1599 [8], 100 nM	107
HCC1599 [8], 10000 nM	87.4
HCC1599 [8], 100000 nM	95.9
HCC1599 [15], 1000 nM	117
HCC1937, 1000 nM	91.4
HDQ-P1, 100 nM	108
Hs578T [4], 100 nM	110
Hs578T [4], 10000 nM	104
Hs578T [4], 100000 nM	90.3
Hs578T [11], 1000 nM	98.2
MDA-MB-231 [6], 100 nM	113
MDA-MB-231 [6], 10000 nM	98.8
MDA-MB-231 [6], 100000 nM	93.2
MDA-MB-231 [13], 1000 nM	98.2
MDA-MB-436, 1000 nM	106
MDA-MB-453, 100 nM	101
MDA-MB-468, 1000 nM	109
MFM-223 [7], 100 nM	105
MFM-223 [7], 10000 nM	98.8
MFM-223 [7], 100000 nM	116
MFM-223 [14], 1000 nM	96.9
SK-BR-3 [5], 100 nM	114
SK-BR-3 [5], 10000 nM	117
SK-BR-3 [5], 100000 nM	114
SK-BR-3 [12], 1000 nM	101

N[C@@H](Cc1ccc(N(CCCl)CCCl)cc1)C(=O)O [Melphalan]
Details	drug sensitivity score
BT-549 [2]	0
MFM-223 [1]	0

Details	normalised viability [%]
BT-474, 9.9 nM	99.3
BT-549 [16], 9.9 nM	110
CAL-51 [3], 0.297 nM	105
CAL-51 [3], 2.97 nM	102
CAL-51 [3], 9.9 nM	107
CAL-51 [10], 0.99 nM	104
CAL-85-1, 0.99 nM	87.5
CAL-120, 9.9 nM	73.6
CAL-148, 0.99 nM	92.4
DU-4475 [9], 0.297 nM	101
DU-4475 [9], 2.97 nM	84.1
DU-4475 [9], 9.9 nM	92.8
DU-4475 [17], 0.99 nM	105
HCC1143, 9.9 nM	74.2
HCC1599 [8], 0.99 nM	102
HCC1599 [8], 99 nM	82.1
HCC1599 [8], 990 nM	90.7
HCC1599 [15], 9.9 nM	96.1
HCC1937, 9.9 nM	102
HDQ-P1, 0.99 nM	97.6
Hs578T [4], 0.99 nM	98.4
Hs578T [4], 99 nM	82
Hs578T [4], 990 nM	73
Hs578T [11], 9.9 nM	75.8
MDA-MB-231 [6], 0.99 nM	91.1
MDA-MB-231 [6], 99 nM	97.7
MDA-MB-231 [6], 990 nM	91.5
MDA-MB-231 [13], 9.9 nM	99.8
MDA-MB-436, 9.9 nM	87.2
MDA-MB-453, 0.99 nM	108
MDA-MB-468, 9.9 nM	108
MFM-223 [7], 0.99 nM	90
MFM-223 [7], 99 nM	84.7
MFM-223 [7], 990 nM	99.3
MFM-223 [14], 9.9 nM	89.9
SK-BR-3 [5], 0.99 nM	94.6
SK-BR-3 [5], 99 nM	98.8
SK-BR-3 [5], 990 nM	50.6
SK-BR-3 [12], 9.9 nM	86.9

Cn1nnc2c(C(N)=O)ncn2c1=O [Temozolomide]
Details	drug sensitivity score
BT-549 [2]	2.1
MFM-223 [1]	0

Details	normalised viability [%]
BT-474, 100 nM	98.2
BT-549 [16], 100 nM	83.6
CAL-51 [3], 3 nM	91.1
CAL-51 [3], 30 nM	96.3
CAL-51 [3], 100 nM	91.4
CAL-51 [10], 10 nM	98.5
CAL-85-1, 10 nM	102
CAL-120, 100 nM	95.9
CAL-148, 10 nM	90.4
DU-4475 [9], 3 nM	108
DU-4475 [9], 30 nM	95.3
DU-4475 [9], 100 nM	113
DU-4475 [17], 10 nM	124
HCC1143, 100 nM	85.4
HCC1599 [8], 10 nM	103
HCC1599 [8], 1000 nM	89.8
HCC1599 [8], 10000 nM	117
HCC1599 [15], 100 nM	115
HCC1937, 100 nM	100
HDQ-P1, 10 nM	92.3
Hs578T [4], 10 nM	104
Hs578T [4], 1000 nM	92.7
Hs578T [4], 10000 nM	85.1
Hs578T [11], 100 nM	81.3
MDA-MB-231 [6], 10 nM	101
MDA-MB-231 [6], 1000 nM	88
MDA-MB-231 [6], 10000 nM	91
MDA-MB-231 [13], 100 nM	104
MDA-MB-436, 100 nM	94.5
MDA-MB-453, 10 nM	101
MDA-MB-468, 100 nM	95.7
MFM-223 [7], 10 nM	98.4
MFM-223 [7], 1000 nM	96.7
MFM-223 [7], 10000 nM	103
MFM-223 [14], 100 nM	105
SK-BR-3 [5], 10 nM	95.1
SK-BR-3 [5], 1000 nM	99.8
SK-BR-3 [5], 10000 nM	113
SK-BR-3 [12], 100 nM	96.2

NC1(c2ccc(-c3nc4ccn5c(=O)[nH]nc5c4cc3-c3ccccc3)cc2)CCC1 [MK-2206]
Details	drug sensitivity score
BT-549 [2]	0
MFM-223 [1]	4.16

Details	normalised viability [%]
BT-474, 10 nM	112
BT-549 [16], 10 nM	107
CAL-51 [3], 0.3 nM	104
CAL-51 [3], 3 nM	101
CAL-51 [3], 10 nM	99.6
CAL-51 [10], 1 nM	100
CAL-85-1, 1 nM	92.2
CAL-120, 10 nM	106
CAL-148, 1 nM	105
DU-4475 [9], 0.3 nM	120
DU-4475 [9], 3 nM	111
DU-4475 [9], 10 nM	107
DU-4475 [17], 1 nM	107
HCC1143, 10 nM	121
HCC1599 [8], 1 nM	98.8
HCC1599 [8], 100 nM	95.7
HCC1599 [8], 1000 nM	62.3
HCC1599 [15], 10 nM	97.4
HCC1937, 10 nM	80.7
HDQ-P1, 1 nM	103
Hs578T [4], 1 nM	118
Hs578T [4], 100 nM	124
Hs578T [4], 1000 nM	85.2
Hs578T [11], 10 nM	98.5
MDA-MB-231 [6], 1 nM	127
MDA-MB-231 [6], 100 nM	95.9
MDA-MB-231 [6], 1000 nM	104
MDA-MB-231 [13], 10 nM	104
MDA-MB-436, 10 nM	107
MDA-MB-453, 1 nM	117
MDA-MB-468, 10 nM	109
MFM-223 [7], 1 nM	109
MFM-223 [7], 100 nM	96.8
MFM-223 [7], 1000 nM	19.8
MFM-223 [14], 10 nM	105
SK-BR-3 [5], 1 nM	107
SK-BR-3 [5], 100 nM	76.2
SK-BR-3 [5], 1000 nM	42.1
SK-BR-3 [12], 10 nM	79
